From paper PMC8462848, “Quinazolin-4(3H)-one based potential multiple tyrosine kinase inhibitors with excellent cytotoxicity” (Journal of Enzyme Inhibition and Medicinal Chemistry, 2021) come the findings set out here.

One series deals with T1, HER2 (Homo sapiens, UniProt P04626).
T1 construct: purchased #40721
The experiment in a line: HER2 kinase assay kit, Kinase-Glo MAX luminescence. The format is biochemical. The procedure: (§1) The HER2/EGFR/VEGFR2 assay kit is designed to measure HER2/EGFR/VEGFR-2 inhibitory activity for screening and profiling applications, using Kinase-Glo® MAX as a detection reagent. The HER2/EGFR/VEGFR2 assay kit comes in a convenient 96-well format, with enough purified recombinant HER2/EGFR/VEGFR2 enzyme, HER2/EGFR/VEGFR2 substrate, ATP and kinase buffer 1 for 100 enzyme reactions. […] […] The quinazolin-4(3H)-ones were diluted in 10% DMSO and 5 μl of the dilution was added to a 50 μl reaction so that the final concentration of DMSO was 1% in all of the reactions. All of the enzymatic reactions were conducted at 30 °C for 40 min. The 50 μl reaction mixture contained 40 mM Tris, pH 7.4, 10 mM MgCl2, 0.1 mg/mL BSA, 1 mM DTT, 10 mM ATP, kinase substrate and the enzyme HER2 / EGFR / VEGFR2. After the enzymatic reaction, 50 μl of Kinase-Glo® MAX luminescence kinase assay solution was added to each reaction and the plates were incubated for 5 min at room temperature. Luminescence signal was measured using a Bio Tek Synergy 2 microplate reader (For detail enzyme assay protocol and the results, please see supplementary data).
Background: Kinase-Glo measures the ATP left after a reaction by luminescence.

For series [1], the system named is A2780 (human ovary adenocarcinoma) cells. The experiment in a line: MTT cytotoxicity assay, A2780. The note with it: Homo sapiens, A2780, mean ± SD of triplicate. The class given is cell-based. As to the method: (§2) The cytotoxicity of the synthesised quinazolin-4(3H)-ones was evaluated by MTT assay, as previously described. Two cancer cell lines, MCF7 (human breast adenocarcinoma) and A2780 (human ovary adenocarcinoma), were used in this study, which were obtained from the ATCC (Rockville, MD, USA). […] Additionally, compounds were prepared at the same medium to obtain serial dilutions (50, 25, […] and 0.1 µM). […] The media were aspirated, and the formazan crystals were solubilised by adding 150 µL DMSO. Absorbance was read on a multi-plate reader (BioRad) at […]. […] The data were obtained from triplicates and analysed using statistical software.

Series [2] has as its target T2, CDK2/CyclinA2 (Homo sapiens, UniProt P24941).
T2 construct: purchased #79599
Put plainly: CDK2 Assay Kit, Kinase-Glo MAX luminescence. The class given is biochemical. The note with it: mean ± SD of triplicate.

Series [3] relates to MCF7 (human breast adenocarcinoma) cells. The experiment in a line: MTT cytotoxicity assay, MCF7. The class given is cell-based. The note with it: Homo sapiens, MCF7, mean ± SD of triplicate. The procedure: as §2
On the technique in general: Tetrazolium assays rely on reduction of a dye to a coloured formazan, in cell work by metabolically active cells.

A further series deals with T3, VEGFR2 (Homo sapiens, UniProt P35968).
T3 construct: purchased #40325
T3 sequence (P35968 20-1356): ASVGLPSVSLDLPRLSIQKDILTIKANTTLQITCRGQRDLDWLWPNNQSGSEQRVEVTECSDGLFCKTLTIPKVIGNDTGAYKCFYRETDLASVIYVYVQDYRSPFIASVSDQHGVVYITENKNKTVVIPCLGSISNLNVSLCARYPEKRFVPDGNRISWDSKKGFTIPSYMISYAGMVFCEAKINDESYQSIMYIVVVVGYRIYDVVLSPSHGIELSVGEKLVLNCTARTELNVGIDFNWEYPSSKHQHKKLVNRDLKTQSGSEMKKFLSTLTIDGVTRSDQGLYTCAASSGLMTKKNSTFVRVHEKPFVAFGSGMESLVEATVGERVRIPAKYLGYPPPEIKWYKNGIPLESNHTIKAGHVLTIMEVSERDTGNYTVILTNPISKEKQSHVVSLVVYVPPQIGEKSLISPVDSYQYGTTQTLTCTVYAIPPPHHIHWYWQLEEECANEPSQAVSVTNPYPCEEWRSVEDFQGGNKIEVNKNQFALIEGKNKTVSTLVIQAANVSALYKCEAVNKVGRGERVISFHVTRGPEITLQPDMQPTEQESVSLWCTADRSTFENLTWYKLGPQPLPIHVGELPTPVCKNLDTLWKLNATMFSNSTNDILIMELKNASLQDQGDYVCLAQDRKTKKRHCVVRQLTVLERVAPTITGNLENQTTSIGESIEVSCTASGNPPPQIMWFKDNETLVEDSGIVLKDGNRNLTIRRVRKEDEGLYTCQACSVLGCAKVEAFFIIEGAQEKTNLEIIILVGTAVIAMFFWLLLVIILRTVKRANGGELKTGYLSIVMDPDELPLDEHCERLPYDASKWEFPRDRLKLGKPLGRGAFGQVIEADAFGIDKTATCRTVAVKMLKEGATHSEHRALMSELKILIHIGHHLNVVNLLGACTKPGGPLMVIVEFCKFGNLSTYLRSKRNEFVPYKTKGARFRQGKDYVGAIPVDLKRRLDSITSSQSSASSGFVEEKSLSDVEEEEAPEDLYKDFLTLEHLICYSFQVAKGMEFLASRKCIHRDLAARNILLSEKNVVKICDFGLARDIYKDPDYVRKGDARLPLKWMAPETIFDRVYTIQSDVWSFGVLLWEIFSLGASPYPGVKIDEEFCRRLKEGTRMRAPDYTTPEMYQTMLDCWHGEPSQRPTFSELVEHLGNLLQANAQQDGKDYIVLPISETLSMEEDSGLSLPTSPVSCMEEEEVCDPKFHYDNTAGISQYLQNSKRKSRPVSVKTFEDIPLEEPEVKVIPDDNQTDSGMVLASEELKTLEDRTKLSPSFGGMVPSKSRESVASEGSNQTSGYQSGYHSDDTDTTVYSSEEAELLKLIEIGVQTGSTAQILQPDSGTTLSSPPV
Put plainly: VEGFR2 kinase assay kit, Kinase-Glo MAX luminescence. The format is biochemical. As to the method:
as §1

Another series addresses T4, EGFR (Homo sapiens, UniProt P00533).
T4 construct: purchased #40321
The experiment in a line: EGFR kinase assay kit, Kinase-Glo MAX luminescence. The class given is biochemical. The procedure:
as §1

Series [4] addresses T2, CDK2/CyclinA2. Put plainly: CDK2 Assay Kit, Kinase-Glo MAX luminescence. The note with it: one experimental data. The class given is biochemical. The procedure:
The CDK2 Assay Kit is designed to measure CDK2/CyclinA2 activity for screening and profiling applications, using Kinase-Glo® MAX as a detection reagent. The CDK2 Assay Kit comes in a convenient 96-well format, with enough purified recombinant CDK2/CyclinA2 enzyme, CDK substrate peptide, ATP and kinase assay buffer for 100 enzyme reactions. […] […] The compounds were diluted in 10% DMSO and 5 μl of the dilution was added to a 50 μl reaction so that the final concentration of DMSO was 1% in all of the reactions. All of the enzymatic reactions were conducted at 30 °C for 40 min. The 50 μl reaction mixture contained 40 mM Tris, pH 7.4, 10 mM MgCl2, 0.1 mg/mL BSA, 1 mM DTT, 10 mM ATP, Kinase substrate and the enzyme (CDK2/CyclinA2). After the enzymatic reaction, 50 μl of Kinase-Glo® MAX Luminescence kinase assay solution was added to each reaction and the plates were incubated for 5 min at room temperature. Luminescence signal was measured using a Bio Tek Synergy 2 microplate reader.
Figure S1. Calculation of the IC20 Values of Protein Kinase Enzyme CDK2 for 2f
* All the kinase IC20 (µM) were calculated according to the above equations.
(1 picture or pasted object on this page, not shown here)

What is called inhibition is the relative decrease from the control value, in per cent. By IC50 is commonly meant the concentration that inhibits the measured activity by half. What is called melting point is the temperature, or range, at which the solid turns liquid.

Molecules are shown by their SMILES.

T1 sequence (P04626 23-1255): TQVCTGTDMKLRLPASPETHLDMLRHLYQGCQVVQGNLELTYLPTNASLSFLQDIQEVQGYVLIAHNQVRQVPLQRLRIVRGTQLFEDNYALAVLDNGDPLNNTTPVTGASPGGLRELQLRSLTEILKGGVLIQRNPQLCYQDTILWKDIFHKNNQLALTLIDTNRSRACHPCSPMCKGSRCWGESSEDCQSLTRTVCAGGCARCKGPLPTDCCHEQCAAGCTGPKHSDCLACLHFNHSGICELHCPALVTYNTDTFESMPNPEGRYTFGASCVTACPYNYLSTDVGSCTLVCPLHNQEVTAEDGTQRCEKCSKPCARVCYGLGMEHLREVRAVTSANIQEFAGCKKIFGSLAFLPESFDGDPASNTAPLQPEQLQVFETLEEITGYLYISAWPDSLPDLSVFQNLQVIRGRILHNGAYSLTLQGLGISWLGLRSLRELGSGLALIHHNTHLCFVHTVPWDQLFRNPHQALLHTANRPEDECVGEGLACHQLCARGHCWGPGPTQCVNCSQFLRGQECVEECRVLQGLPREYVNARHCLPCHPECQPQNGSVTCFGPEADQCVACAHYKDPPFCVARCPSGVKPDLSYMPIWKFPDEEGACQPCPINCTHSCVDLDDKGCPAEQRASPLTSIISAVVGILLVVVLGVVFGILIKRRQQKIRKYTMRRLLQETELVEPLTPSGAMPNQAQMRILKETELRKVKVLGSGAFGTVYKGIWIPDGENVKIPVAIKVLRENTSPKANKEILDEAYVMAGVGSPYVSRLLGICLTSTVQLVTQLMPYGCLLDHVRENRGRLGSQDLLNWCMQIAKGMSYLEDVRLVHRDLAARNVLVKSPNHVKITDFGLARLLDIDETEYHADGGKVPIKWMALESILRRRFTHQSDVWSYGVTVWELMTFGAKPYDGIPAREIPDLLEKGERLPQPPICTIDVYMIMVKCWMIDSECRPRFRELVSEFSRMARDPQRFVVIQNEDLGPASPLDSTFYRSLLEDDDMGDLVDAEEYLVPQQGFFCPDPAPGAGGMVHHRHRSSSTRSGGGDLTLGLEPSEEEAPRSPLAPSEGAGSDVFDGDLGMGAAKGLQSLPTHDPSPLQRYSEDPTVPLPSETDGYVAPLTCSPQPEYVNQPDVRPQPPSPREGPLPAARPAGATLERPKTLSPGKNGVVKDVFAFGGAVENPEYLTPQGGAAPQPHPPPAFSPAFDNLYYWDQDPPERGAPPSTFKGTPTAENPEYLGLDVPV
T4 sequence (P00533 25-1210): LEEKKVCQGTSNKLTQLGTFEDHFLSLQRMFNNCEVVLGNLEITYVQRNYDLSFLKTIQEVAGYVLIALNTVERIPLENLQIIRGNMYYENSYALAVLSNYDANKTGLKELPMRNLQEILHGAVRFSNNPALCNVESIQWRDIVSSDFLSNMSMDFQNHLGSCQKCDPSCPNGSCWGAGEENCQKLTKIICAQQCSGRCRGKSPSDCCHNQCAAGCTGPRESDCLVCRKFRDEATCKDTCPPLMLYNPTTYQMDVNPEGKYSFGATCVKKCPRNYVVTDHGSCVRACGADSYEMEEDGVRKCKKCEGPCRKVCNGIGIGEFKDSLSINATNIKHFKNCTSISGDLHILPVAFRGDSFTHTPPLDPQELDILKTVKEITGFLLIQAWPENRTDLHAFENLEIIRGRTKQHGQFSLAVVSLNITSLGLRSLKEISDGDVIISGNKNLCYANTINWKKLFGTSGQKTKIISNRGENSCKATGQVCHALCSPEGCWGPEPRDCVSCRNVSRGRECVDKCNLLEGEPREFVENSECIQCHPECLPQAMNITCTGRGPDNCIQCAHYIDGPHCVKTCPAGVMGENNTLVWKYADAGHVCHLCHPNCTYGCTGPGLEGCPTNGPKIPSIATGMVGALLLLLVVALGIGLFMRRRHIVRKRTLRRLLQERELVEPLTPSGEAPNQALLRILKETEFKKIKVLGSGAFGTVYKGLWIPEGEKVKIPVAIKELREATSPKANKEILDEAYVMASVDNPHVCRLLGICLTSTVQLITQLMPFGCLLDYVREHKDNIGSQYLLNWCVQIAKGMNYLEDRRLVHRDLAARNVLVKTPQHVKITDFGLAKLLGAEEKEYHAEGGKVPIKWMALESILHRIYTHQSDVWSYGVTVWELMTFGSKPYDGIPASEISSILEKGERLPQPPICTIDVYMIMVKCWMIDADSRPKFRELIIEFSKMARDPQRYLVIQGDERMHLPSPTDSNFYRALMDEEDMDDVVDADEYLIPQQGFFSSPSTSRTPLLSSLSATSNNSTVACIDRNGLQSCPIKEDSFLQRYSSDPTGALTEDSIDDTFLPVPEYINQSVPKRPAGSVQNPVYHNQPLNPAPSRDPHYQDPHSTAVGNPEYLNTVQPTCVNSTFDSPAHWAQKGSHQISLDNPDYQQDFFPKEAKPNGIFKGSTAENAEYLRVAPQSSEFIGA

`CCOC(=O)CSc1nc2ccc(F)cc2c(=O)n1Cc1ccccc1` [2g, Ethyl 2-((3-benzyl-6-fluoro-4-oxo-3,4-dihydroquinazolin-2-yl)thio)acetate] showed a melting point of 110 to 111 °C. The inhibition at 0.01 µM on HER2 (0.01 µM, one experimental data) was 17.3%. Besides, on HER2 (0.1 µM, one experimental data), the inhibition at 0.1 µM worked out at 44.2%. Further, the inhibition at 1 µM at HER2 (1 µM, one experimental data) stood at 83.5%. Besides, on HER2 (10 µM, one experimental data), the inhibition at 10 µM was determined as 94.4%. In addition, the IC50 at HER2 (mean ± SD of triplicate) was 884 ± 16 nM. In series [1], this molecule yielded an IC50 of 2400 ± 200 nM. For the same molecule, the IC50 at CDK2/CyclinA2 [2] came out at 444 ± 11 nM. The same molecule registered an IC50 in series [3] of 1220 ± 170 nM. For the same molecule, the inhibition at 0.01 µM at VEGFR2 (0.01 µM, one experimental data, read-out: % Inhibition VEGFR-2) came to 2.43%. Further, the inhibition at 0.1 µM on VEGFR2 (0.1 µM, one experimental data, read-out: % Inhibition VEGFR-2) worked out at 18.8%. Also, at VEGFR2 (1 µM, one experimental data, read-out: % Inhibition VEGFR-2), the inhibition at 1 µM is 44.1%. Moreover, the inhibition at 10 µM at VEGFR2 (10 µM, one experimental data, read-out: % Inhibition VEGFR-2) was 29.2%. For the same molecule, the IC50 on VEGFR2 (mean ± SD of triplicate) came out at 702 ± 13 nM. Further, the inhibition at 0.01 µM on EGFR (0.01 µM, one experimental data) came to 22.9%. The inhibition at 0.1 µM on EGFR (0.1 µM, one experimental data) amounted to 48.9%. Besides, the inhibition at 1 µM at EGFR (1 µM, one experimental data) amounted to 80.1%. At EGFR (10 µM, one experimental data), the inhibition at 10 µM was 91.2%. The IC50 on EGFR (mean ± SD of triplicate) was found to be 232 ± 30 nM. The inhibition at 0.01 µM on CDK2/CyclinA2 [4] (0.01 µM) was determined as 8.38%. For the same molecule, on CDK2/CyclinA2 [4] (0.1 µM), the inhibition at 0.1 µM came out at 20.7%. Also, the inhibition at 1 µM on CDK2/CyclinA2 [4] (1 µM) is 78.2%. Moreover, at CDK2/CyclinA2 [4] (10 µM), the inhibition at 10 µM was 91.4%.
